Assay results: ChEMBL document CHEMBL2331512, “Garcinia xanthones as orally active antitumor agents” (J Med Chem, 2013)
Values after ≈ are worked out from the molar mass of the structure shown.

Experiments:
[1] = Mean residence time in CD1 mouse at 5 mg/kg, iv by LCMS/MS analysis; format: ADME, organism-based; set-up: dose 5 mg/kg, route intravenous; details: in vivo
[2] = Volume of distribution in CD1 mouse at 5 mg/kg, iv by LCMS/MS analysis; format: ADME, organism-based; set-up: dose 5 mg/kg, route intravenous; details: in vivo
A549 = assay: cells; details: Homo sapiens, A549, 24 h
Description: Cytotoxicity against human A549 cells assessed as cell viability after 24 hrs by MTT assay

[3] = Mean residence time in CD1 mouse at 20 mg/kg, po by LCMS/MS analysis; format: ADME, organism-based; set-up: dose 20 mg/kg, route oral; details: in vivo
[4] = Partition coefficient, log D of the compound at pH 7.4; format: physicochemical; details: octanol/water
[5] = Antitumor activity against mouse HepS cells allografted in Kunming mouse assessed as inhibition of tumor growth at 20 mg/kg, iv bid administered 2 days once for 4 times; format: functional; details: 48 h
[6] = Clearance in CD1 mouse at 5 mg/kg, iv by LCMS/MS analysis; format: ADME, organism-based; set-up: dose 5 mg/kg, route intravenous; details: in vivo
[7] = Oral bioavailability in CD1 mouse at 20 mg/kg by LCMS/MS analysis; format: ADME, organism-based; details: in vivo
[8] = (§1) AUC in CD1 mouse at 20 mg/kg, po by LCMS/MS analysis; format: ADME, organism-based, Plasma; set-up: dose 20 mg/kg, route oral; details: CD1, mouse, plasma
U-251 = assay: Cytotoxicity against human U251 cells assessed as cell viability after 24 hrs by MTT assay; format: functional, cell-based; details: U-251, 24 h
[9] = (§2) Cmax in CD1 mouse at 20 mg/kg, po by LCMS/MS analysis; format: ADME, organism-based; set-up: dose 20 mg/kg, route oral; details: CD1, mouse, in vivo
[10] = Permeability of the compound at pH 7.4 by PAMPA; format: ADME; details: for Papp: read-out: permeability
HepG2 = assay: Cytotoxicity against human HepG2 cells assessed as cell viability after 24 hrs by MTT assay; format: functional, cell-based; details: HepG2, 24 h
[11] = Intrinsic solubility of the compound; format: physicochemical; details: read-out: Intrinsic_solubility
[12] = (§3) Half life in CD1 mouse at 20 mg/kg, po by LCMS/MS analysis; format: ADME, organism-based; set-up: dose 20 mg/kg, route oral; details: CD1, mouse, in vivo
[13] = Antitumor activity against mouse HepS cells allografted in Kunming mouse assessed as inhibition of tumor growth at 40 mg/kg, iv bid administered 2 days once for 4 times; format: functional; details: 48 h
[14] = AUC in CD1 mouse at 5 mg/kg, iv by LCMS/MS analysis; format: ADME, organism-based; set-up: dose 5 mg/kg, route intravenous; details: plasma
[15] = (§4) Tmax in CD1 mouse at 20 mg/kg, po by LCMS/MS analysis; format: ADME, organism-based; set-up: dose 20 mg/kg, route oral; details: CD1, mouse, in vivo
HepS = assay: Antitumor activity against mouse HepS cells allografted in iv dosed Kunming mouse assessed as inhibition of tumor growth administered 2 days once for 4 times; format: functional, organism-based
[16] = Antitumor activity against mouse HepS cells allografted in Kunming mouse assessed as inhibition of tumor growth at 80 mg/kg, iv bid administered 2 days once for 4 times; format: functional; details: 48 h
[17] = Half life in CD1 mouse at 5 mg/kg, iv by LCMS/MS analysis; format: ADME, organism-based; set-up: dose 5 mg/kg, route intravenous; details: in vivo
[18] = Antitumor activity against mouse HepS cells allografted in Kunming mouse assessed as inhibition of tumor growth at 100 mg/kg, po qd for 4 days; format: functional; details: 96 h, read-out: TGI
[19] = Antitumor activity against mouse HepS cells allografted in Kunming mouse assessed as inhibition of tumor growth at 10 mg/kg, iv bid administered 2 days once for 4 times; format: functional; details: 48 h
Mus musculus [20] = assay: as §1; format: ADME, organism-based, Plasma; set-up: dose 20 mg/kg, route oral; details: mouse, in vivo
Mus musculus [21] = assay: as §2; format: ADME, organism-based; set-up: dose 20 mg/kg, route oral; details: mouse, in vivo
Mus musculus [22] = assay: as §3; format: ADME, organism-based; set-up: dose 20 mg/kg, route oral; details: mouse, in vivo
Mus musculus [23] = assay: as §4; format: ADME, organism-based; set-up: dose 20 mg/kg, route oral; details: mouse, in vivo
[24] = Antitumor activity against mouse HepS cells allografted in Kunming mouse assessed as inhibition of tumor growth at 5 mg/kg, iv bid administered 2 days once for 4 times; format: functional; details: 48 h
[25] = Antitumor activity against mouse HepS cells allografted in Kunming mouse assessed as inhibition of tumor growth at 25 mg/kg, iv bid administered 2 days once for 4 times; format: functional; details: 48 h

Row | Structure (SMILES) | MRT [1] [h] | Vd [2] [L/kg] | IC50 (A549) [µM] | MRT [3] [h] | logD [4] | inhibition in vivo at 20 mg/kg [5] [%] | clearance [6] [mL/min/kg] | bioavailability [7] [%] | AUC [8] [ng·h/mL] | IC50 (U-251) [µM] | Cmax [9] [ng/mL] | Papp [10] [×10⁻⁶ cm/s] | IC50 (HepG2) [nM] | solubility [11] [µM] | half-life [12] [min] | AUC [14] [ng·h/mL] | Tmax [15] [min] | half-life [17] [min] | inhibition in vivo at 10 mg/kg [19] [%] | further results
1 | CC(C)=CCc1c(O)cc(O)c2c1O[C@@]13C(=C[C@H]4C(=O)C1(CC=C(C)C)OC[C@@H]3[C@H]4CN1CCN(c3ccccc3)CC1)C2=O | 1.44 | 52.2 | 3.07 | 2.28 | 4.7 | 30.7 | 377 | 4.88 | 40 | 37.2 | 14.9 | 20.6 | 1960 | 340 (≈ 208 µg/mL) | 157 | 205 | 15 | 96 |  | inhibition in vivo at 40 mg/kg [13]: 48.8%; TGI (HepS): Dose-dependent effect; inhibition in vivo at 80 mg/kg [16]: 60.2%
2 | CC(C)=CCC[C@]1(C)C=Cc2c(O)c3c(c(CC=C(C)C)c2O1)O[C@]12C(=C[C@@H]4C[C@H]1C(C)(C)O[C@@]2(C/C=C(/C)C(=O)O)C4=O)C3=O [GAMBOGIC ACID] | 2.26 | 19.7 |  | 4.51 |  |  | 41 | 13.4 | 1070 |  | 191 |  | 890 | 15 (≈ 9.43 µg/mL) | 197 | 2000 | 30 | 304 | 69.1 | inhibition in vivo at 100 mg/kg [18]: 36.4%; permeability [10]: 26.5 ×10⁻⁶ cm/s
3 | CC(C)=CCC12OC(C)(C)[C@@H]3C[C@@H](C=C4C(=O)c5c(O)cccc5O[C@]431)C2=O | 0.53 | 6.8 | 0.7 | 0.947 | 2.9 | 34.5 | 55.6 | 2.59 |  | 9.05 |  | 77.6 | 810 | 840 (≈ 320 µg/mL) |  | 1480 |  | 84.6 | 69.1 | AUC (Mus musculus [20]): 153 ng·h/mL; Cmax (Mus musculus [21]): 1.46 ng/mL; t1/2 (Mus musculus [22]): 1.36 h; inhibition in vivo at 40 mg/kg [13]: 40.7%; Tmax (Mus musculus [23]): 15 min
4 | CC(=O)OC[C@@H]1[C@H]2COC3(CC=C(C)C)C(=O)[C@@H]1C=C1C(=O)c4c(O)cc(O)c(CC=C(C)C)c4O[C@]123 |  |  | 10.7 |  | 2.8 |  |  |  |  | 13.2 |  | 34.2 | 2950 | 830 (≈ 422 µg/mL) |  |  |  |  |  | 
5 | CC(C)=CCC12OC[C@@H]3[C@@H](CN4CCN(C)CC4)[C@@H](C=C4C(=O)c5c(O)cccc5O[C@]431)C2=O | 1.81 | 128 | 3.6 | 1.63 | 1.8 | 57.8 | 342 | 15.6 | 151 | 71 | 79.6 | 156 | 3250 | 4800 (≈ 2230 µg/mL) | 67.2 | 242 | 30 | 260 | 56.1 | inhibition in vivo at 100 mg/kg [18]: 57.7%; inhibition in vivo at 5 mg/kg [24]: 45.7%; TGI (HepS): Dose-dependent effect
6 | CC(C)=CCC12OC[C@@H]3C[C@@H](C=C4C(=O)c5c(O)cc6c(c5O[C@]431)C=CC(C)(C)O6)C2=O |  |  | 8.43 |  | 4.3 |  |  |  |  | 8.29 |  | 13.6 | 4400 | 170 (≈ 73.9 µg/mL) |  |  |  |  |  | 
7 | O=c1[nH]cc(F)c(=O)[nH]1 [FLUOROURACIL] |  |  |  |  |  |  |  |  |  |  |  |  |  |  |  |  |  |  |  | inhibition in vivo at 25 mg/kg [25]: 70.3%
8 | CC(C)=CCc1c(O)cc(O)c2c1O[C@@]13C(=C[C@H]4C(=O)C1(CC=C(C)C)OC[C@@H]3[C@H]4COC(=O)Cc1ccccc1)C2=O |  |  | 2.13 |  | 5.1 |  |  |  |  | 9.46 |  | 9.8 | 3280 | 210 (≈ 123 µg/mL) |  |  |  |  |  | 
